Results reported in the NIST ThermoML archive (doi:10.1021/je101316g).
± gives the expanded uncertainty stated by the source.

Details: 293.15 K; 101.33 kPa; Liquid

viscosity	SMILES
2243.6 ± 460 mPa·s	CCCCCCn1cc[n+](CCC#N)c1.O=S(=O)([O-])C(F)(F)F
7079.4 ± 1900 mPa·s	CCCCCCn1cc[n+](CCC#N)c1.O=S(=O)([O-])c1ccccc1 [3-(2-cyanoethyl)-1-hexyl-1H-imidazolium benzenesulfonate]
19212 ± 6200 mPa·s	CCCCCCn1cc[n+](CCC#N)c1.O=C([O-])c1cccc(S(=O)(=O)O)c1 [3-(2-cyanoethyl)-1-hexyl-1H-imidazolium 3-sulfobenzoate]

Same assay, conditions: 293.15 K; 101.33 kPa; Liquid; Vibrating tube method

mass density	SMILES
1289.6 ± 4.6 kg/m3	CCCCCCn1cc[n+](CCC#N)c1.O=S(=O)([O-])C(F)(F)F
1101.1 ± 2.3 kg/m3	CCCCCCCCCCCCOS(=O)(=O)[O-].CCCCCCn1cc[n+](CCC#N)c1 [3-(2-cyanoethyl)-1-hexyl-1H-imidazolium dodecyl sulfate]
1092.7 ± 2.6 kg/m3	CCCCC(CC)COC(=O)CC(C(=O)OCC(CC)CCCC)S(=O)(=O)[O-].CCCCCC[n+]1ccn(CCC#N)c1 (configuration not stated)
1226 ± 2.5 kg/m3	CCCCCCn1cc[n+](CCC#N)c1.O=S(=O)([O-])c1ccccc1 [3-(2-cyanoethyl)-1-hexyl-1H-imidazolium benzenesulfonate]
1248.1 ± 3.6 kg/m3	CCCCCCn1cc[n+](CCC#N)c1.O=C([O-])c1cccc(S(=O)(=O)O)c1 [3-(2-cyanoethyl)-1-hexyl-1H-imidazolium 3-sulfobenzoate]

Same assay, conditions: 298.15 K; 101.33 kPa; Liquid

viscosity	SMILES
1469.7 ± 270 mPa·s	CCCCCCn1cc[n+](CCC#N)c1.O=S(=O)([O-])C(F)(F)F
13770 ± 4200 mPa·s	CCCCCCCCCCCCOS(=O)(=O)[O-].CCCCCCn1cc[n+](CCC#N)c1 [3-(2-cyanoethyl)-1-hexyl-1H-imidazolium dodecyl sulfate]
19896 ± 6400 mPa·s	CCCCC(CC)COC(=O)CC(C(=O)OCC(CC)CCCC)S(=O)(=O)[O-].CCCCCC[n+]1ccn(CCC#N)c1 (configuration not stated)
4268.1 ± 1000 mPa·s	CCCCCCn1cc[n+](CCC#N)c1.O=S(=O)([O-])c1ccccc1 [3-(2-cyanoethyl)-1-hexyl-1H-imidazolium benzenesulfonate]
11463 ± 3400 mPa·s	CCCCCCn1cc[n+](CCC#N)c1.O=C([O-])c1cccc(S(=O)(=O)O)c1 [3-(2-cyanoethyl)-1-hexyl-1H-imidazolium 3-sulfobenzoate]

Same assay, conditions: 298.15 K; 101.33 kPa; Liquid; Vibrating tube method

mass density	SMILES
1285.7 ± 4.6 kg/m3	CCCCCCn1cc[n+](CCC#N)c1.O=S(=O)([O-])C(F)(F)F
1097.8 ± 2.3 kg/m3	CCCCCCCCCCCCOS(=O)(=O)[O-].CCCCCCn1cc[n+](CCC#N)c1 [3-(2-cyanoethyl)-1-hexyl-1H-imidazolium dodecyl sulfate]
1089 ± 2.6 kg/m3	CCCCC(CC)COC(=O)CC(C(=O)OCC(CC)CCCC)S(=O)(=O)[O-].CCCCCC[n+]1ccn(CCC#N)c1 (configuration not stated)
1222.7 ± 2.5 kg/m3	CCCCCCn1cc[n+](CCC#N)c1.O=S(=O)([O-])c1ccccc1 [3-(2-cyanoethyl)-1-hexyl-1H-imidazolium benzenesulfonate]
1244.6 ± 3.6 kg/m3	CCCCCCn1cc[n+](CCC#N)c1.O=C([O-])c1cccc(S(=O)(=O)O)c1 [3-(2-cyanoethyl)-1-hexyl-1H-imidazolium 3-sulfobenzoate]

Same assay, conditions: 303.15 K; 101.33 kPa; Liquid

viscosity	SMILES
991.9 ± 160 mPa·s	CCCCCCn1cc[n+](CCC#N)c1.O=S(=O)([O-])C(F)(F)F
8252.7 ± 2300 mPa·s	CCCCCCCCCCCCOS(=O)(=O)[O-].CCCCCCn1cc[n+](CCC#N)c1 [3-(2-cyanoethyl)-1-hexyl-1H-imidazolium dodecyl sulfate]
12117 ± 3600 mPa·s	CCCCC(CC)COC(=O)CC(C(=O)OCC(CC)CCCC)S(=O)(=O)[O-].CCCCCC[n+]1ccn(CCC#N)c1 (configuration not stated)
2865.6 ± 630 mPa·s	CCCCCCn1cc[n+](CCC#N)c1.O=S(=O)([O-])c1ccccc1 [3-(2-cyanoethyl)-1-hexyl-1H-imidazolium benzenesulfonate]
7578.3 ± 2100 mPa·s	CCCCCCn1cc[n+](CCC#N)c1.O=C([O-])c1cccc(S(=O)(=O)O)c1 [3-(2-cyanoethyl)-1-hexyl-1H-imidazolium 3-sulfobenzoate]

Same assay, conditions: 303.15 K; 101.33 kPa; Liquid; Vibrating tube method

mass density	SMILES
1281.9 ± 4.6 kg/m3	CCCCCCn1cc[n+](CCC#N)c1.O=S(=O)([O-])C(F)(F)F
1094.5 ± 2.3 kg/m3	CCCCCCCCCCCCOS(=O)(=O)[O-].CCCCCCn1cc[n+](CCC#N)c1 [3-(2-cyanoethyl)-1-hexyl-1H-imidazolium dodecyl sulfate]
1085.4 ± 2.6 kg/m3	CCCCC(CC)COC(=O)CC(C(=O)OCC(CC)CCCC)S(=O)(=O)[O-].CCCCCC[n+]1ccn(CCC#N)c1 (configuration not stated)
1219.4 ± 2.5 kg/m3	CCCCCCn1cc[n+](CCC#N)c1.O=S(=O)([O-])c1ccccc1 [3-(2-cyanoethyl)-1-hexyl-1H-imidazolium benzenesulfonate]
1241.2 ± 3.6 kg/m3	CCCCCCn1cc[n+](CCC#N)c1.O=C([O-])c1cccc(S(=O)(=O)O)c1 [3-(2-cyanoethyl)-1-hexyl-1H-imidazolium 3-sulfobenzoate]

Same assay, conditions: 308.15 K; 101.33 kPa; Liquid

viscosity	SMILES
648.5 ± 91 mPa·s	CCCCCCn1cc[n+](CCC#N)c1.O=S(=O)([O-])C(F)(F)F
5185.2 ± 1300 mPa·s	CCCCCCCCCCCCOS(=O)(=O)[O-].CCCCCCn1cc[n+](CCC#N)c1 [3-(2-cyanoethyl)-1-hexyl-1H-imidazolium dodecyl sulfate]
7571.4 ± 2100 mPa·s	CCCCC(CC)COC(=O)CC(C(=O)OCC(CC)CCCC)S(=O)(=O)[O-].CCCCCC[n+]1ccn(CCC#N)c1 (configuration not stated)
1795.1 ± 350 mPa·s	CCCCCCn1cc[n+](CCC#N)c1.O=S(=O)([O-])c1ccccc1 [3-(2-cyanoethyl)-1-hexyl-1H-imidazolium benzenesulfonate]
4765.8 ± 1200 mPa·s	CCCCCCn1cc[n+](CCC#N)c1.O=C([O-])c1cccc(S(=O)(=O)O)c1 [3-(2-cyanoethyl)-1-hexyl-1H-imidazolium 3-sulfobenzoate]

Same assay, conditions: 308.15 K; 101.33 kPa; Liquid; Vibrating tube method

mass density	SMILES
1278.3 ± 4.6 kg/m3	CCCCCCn1cc[n+](CCC#N)c1.O=S(=O)([O-])C(F)(F)F
1091.2 ± 2.3 kg/m3	CCCCCCCCCCCCOS(=O)(=O)[O-].CCCCCCn1cc[n+](CCC#N)c1 [3-(2-cyanoethyl)-1-hexyl-1H-imidazolium dodecyl sulfate]
1081.8 ± 2.5 kg/m3	CCCCC(CC)COC(=O)CC(C(=O)OCC(CC)CCCC)S(=O)(=O)[O-].CCCCCC[n+]1ccn(CCC#N)c1 (configuration not stated)
1216.1 ± 2.5 kg/m3	CCCCCCn1cc[n+](CCC#N)c1.O=S(=O)([O-])c1ccccc1 [3-(2-cyanoethyl)-1-hexyl-1H-imidazolium benzenesulfonate]
1238 ± 3.6 kg/m3	CCCCCCn1cc[n+](CCC#N)c1.O=C([O-])c1cccc(S(=O)(=O)O)c1 [3-(2-cyanoethyl)-1-hexyl-1H-imidazolium 3-sulfobenzoate]

Same assay, conditions: 313.15 K; 101.33 kPa; Liquid

viscosity	SMILES
437.8 ± 52 mPa·s	CCCCCCn1cc[n+](CCC#N)c1.O=S(=O)([O-])C(F)(F)F
3354.6 ± 760 mPa·s	CCCCCCCCCCCCOS(=O)(=O)[O-].CCCCCCn1cc[n+](CCC#N)c1 [3-(2-cyanoethyl)-1-hexyl-1H-imidazolium dodecyl sulfate]
4586.7 ± 1100 mPa·s	CCCCC(CC)COC(=O)CC(C(=O)OCC(CC)CCCC)S(=O)(=O)[O-].CCCCCC[n+]1ccn(CCC#N)c1 (configuration not stated)
1170.4 ± 200 mPa·s	CCCCCCn1cc[n+](CCC#N)c1.O=S(=O)([O-])c1ccccc1 [3-(2-cyanoethyl)-1-hexyl-1H-imidazolium benzenesulfonate]
